Source: PMC11274987, “Synthesis of Chiral Acyclic Pyrimidine Nucleoside Analogues from DHAP-Dependent Aldolases” (Biomolecules, 2024)

What was measured:
[1] = target: T1, TmRhu-1PA (Thermotoga maritima, UniProt Q9X0G1); assay: aldol addition, HPLC and NMR of products; format: biochemical; conditions: acceptor; co-substrate DHAP; 20 mM phosphate pH 6.8, 45 °C
T1 construct: gene TM_1072; recombinant, cloned, expressed and purified as in earlier work (heat step at 80 °C, cobalt salts present)
T1 sequence (Q9X0G1 1-236): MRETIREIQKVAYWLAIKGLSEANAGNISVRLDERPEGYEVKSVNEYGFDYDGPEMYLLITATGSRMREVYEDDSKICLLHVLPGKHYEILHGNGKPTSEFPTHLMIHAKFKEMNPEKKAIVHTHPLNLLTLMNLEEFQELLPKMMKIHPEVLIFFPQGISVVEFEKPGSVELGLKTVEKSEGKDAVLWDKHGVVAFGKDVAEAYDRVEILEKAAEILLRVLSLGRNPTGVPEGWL

[2] = target: T2, RAMA (Oryctolagus cuniculus, UniProt P00883); assay: aldol addition, HPLC and NMR of products; format: biochemical; conditions: acceptor; co-substrate DHAP; 20 mM phosphate pH 6.8, 30 °C
T2 construct: gene ALDOA; commercial native enzyme from rabbit muscle (Sigma-Aldrich)
T2 sequence (P00883 2-364): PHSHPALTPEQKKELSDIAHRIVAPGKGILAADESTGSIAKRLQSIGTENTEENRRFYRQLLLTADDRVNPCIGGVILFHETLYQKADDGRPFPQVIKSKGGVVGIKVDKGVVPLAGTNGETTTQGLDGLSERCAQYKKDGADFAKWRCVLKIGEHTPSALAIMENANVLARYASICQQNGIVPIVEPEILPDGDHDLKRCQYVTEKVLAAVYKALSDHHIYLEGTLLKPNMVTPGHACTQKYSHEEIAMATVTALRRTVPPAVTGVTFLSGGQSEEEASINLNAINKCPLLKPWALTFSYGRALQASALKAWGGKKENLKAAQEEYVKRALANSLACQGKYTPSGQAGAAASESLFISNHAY

| SMILES | aldol addition, HPLC and NMR of products [1] | aldol addition, HPLC and NMR of products [2] |
| --- | --- | --- |
| Cc1cn(CC=O)c(=O)[nH]c1=O [1a, thyminyl acetaldehyde] | biotransformation with the thymine derivative (1a) and TmRhu-1PA as a biocatalyst |  |
| Nc1ccn(CC=O)c(=O)n1 [1b, cytosyl acetaldehyde] |  | A similar reaction profile was observed when the cytosine derivative |
